For assay [1], the target named is T1, Tubulin (Homo sapiens) (UniProt P68371+Q9H4B7+P0DPH7+P68366+Q13509+Q71U36+P04350+Q3ZCM7+P07437+P68363+Q9BQE3+Q6PEY2+Q13885+Q9BVA1+Q9BUF5). Put plainly: Binding affinity to microtubules, activity expressed as ID50 of compound/ID50 of paclitaxel. In kind it is protein-complex assay.
Assay [2] addresses T1, Tubulin (Homo sapiens). Put plainly: Binding affinity to microtubules, activity expressed as log 1/ID50 of compound/ID50 of paclitaxel. In kind it is protein-complex assay.

`CC(=O)O[C@@]12CO[C@@H]1C[C@H](O)[C@@]1(C)C(=O)[C@H](O)C3=C(C)[C@@H](OC(=O)[C@H](NC(=O)c4ccccc4)[C@@H](O)c4ccccc4)C[C@@](O)([C@@H](OC(=O)c4ccccc4)[C@H]21)C3(C)C`: on Tubulin (Homo sapiens) [1], the ID50 ratio is 10. The Log 1/ratio on Tubulin (Homo sapiens) [2] was -1.

Turning to `CC(=O)O[C@@]12CO[C@@H]1C[C@H](O)[C@@]1(C)C(=O)[C@H](O)C3=C(C)[C@@H](OC(=O)[C@@H](O)[C@H](NC(=O)c4ccccc4)c4ccccc4)C[C@@](O)([C@@H](OC(=O)c4ccccc4)[C@H]21)C3(C)C`, the ID50 ratio at Tubulin (Homo sapiens) [1] worked out at 4. Further, the Log 1/ratio at Tubulin (Homo sapiens) [2] was -0.602.

`CC(=O)O[C@@]12CO[C@@H]1C[C@H](O)[C@@]1(C)C(=O)[C@H](O)C3=C(C)[C@@H](OC(=O)[C@H](O)[C@@H](NC(=O)OC(C)(C)C)c4ccccc4)C[C@@](O)([C@@H](OC(=O)c4ccccc4)[C@H]21)C3(C)C` (stereo in doubt; 39): on Tubulin (Homo sapiens) [1], the ID50 ratio is 0.5. Further, the Log 1/ratio at Tubulin (Homo sapiens) [2] was 0.301.

As for `CC(=O)O[C@H]1C(=O)[C@@]2(C)[C@H]([C@H](OC(=O)c3ccccc3)[C@]3(O)C[C@H](OC(=O)[C@H](O)[C@@H](NC(=O)c4ccccc4)c4ccc5ccccc5c4)C(C)=C1C3(C)C)[C@]1(OC(C)=O)CO[C@@H]1C[C@@H]2O`, the ID50 ratio at Tubulin (Homo sapiens) [1] was found to be 7.1. The Log 1/ratio on Tubulin (Homo sapiens) [2] is -0.851.

As for `CC(=O)O[C@@]12CO[C@@H]1C[C@H](O)[C@@]1(C)C(=O)[C@H](O)C3=C(C)[C@@H](OC(=O)[C@@H](NC(=O)OC(C)(C)C)[C@H](O)c4ccccc4)C[C@@](O)([C@@H](OC(=O)c4ccccc4)[C@H]21)C3(C)C`, on Tubulin (Homo sapiens) [1], the ID50 ratio was 160. Also, on Tubulin (Homo sapiens) [2], the Log 1/ratio is -2.2.
